Data: the supplement of paper PMC10307832

Legend:
Test in all cases: relative viability (nuclei count vs DMSO), 5 days (fraction); higher = more cells survive
AGI-6780 + Pictilisib = compound: O=C(Nc1cccc(C(F)(F)F)c1)Nc1cc(S(=O)(=O)NC2CC2)ccc1-c1ccsc1 [AGI-6780] + CS(=O)(=O)N1CCN(Cc2cc3nc(-c4cccc5[nH]ncc45)nc(N4CCOCC4)c3s2)CC1 [Pictilisib] (partner 1 µM)
How it was run: (§1)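 Lung cancer cell lines, seeded in 1536-well plates, were treated the following day by pin tool with a single drug or with five library-drug doses (not always all listed) in √10 steps on top of a fixed anchor-drug dose. Cells were fixed and nuclei stained in one step after 5 days, and nuclei were counted. Relative viability is the nuclei count for treated wells divided by that for vehicle wells, reported as medians of duplicate plates.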

AGI-6780 + Decitabine = compound: O=C(Nc1cccc(C(F)(F)F)c1)Nc1cc(S(=O)(=O)NC2CC2)ccc1-c1ccsc1 [AGI-6780] + Nc1ncn([C@H]2C[C@H](O)[C@@H](CO)O2)c(=O)n1 [Decitabine] (partner 2 µM)
How it was run: as §1

AGI-6780 + Crizotinib = compound: O=C(Nc1cccc(C(F)(F)F)c1)Nc1cc(S(=O)(=O)NC2CC2)ccc1-c1ccsc1 [AGI-6780] + C[C@@H](Oc1cc(-c2cnn(C3CCNCC3)c2)cnc1N)c1c(Cl)ccc(F)c1Cl [Crizotinib] (partner 1 µM)
How it was run: as §1

AGI-6780 + Alpelisib = compound: O=C(Nc1cccc(C(F)(F)F)c1)Nc1cc(S(=O)(=O)NC2CC2)ccc1-c1ccsc1 [AGI-6780] + Cc1nc(NC(=O)N2CCC[C@H]2C(N)=O)sc1-c1ccnc(C(C)(C)C(F)(F)F)c1 [Alpelisib] (partner 2 µM)
How it was run: as §1

AGI-6780 + Phenformin = compound: O=C(Nc1cccc(C(F)(F)F)c1)Nc1cc(S(=O)(=O)NC2CC2)ccc1-c1ccsc1 [AGI-6780] + N=C(N)NC(=N)NCCc1ccccc1 [Phenformin] (partner 250 µM)
How it was run: as §1

AGI-6780 + Lapatinib = compound: O=C(Nc1cccc(C(F)(F)F)c1)Nc1cc(S(=O)(=O)NC2CC2)ccc1-c1ccsc1 [AGI-6780] + CS(=O)(=O)CCNCc1ccc(-c2ccc3ncnc(Nc4ccc(OCc5cccc(F)c5)c(Cl)c4)c3c2)o1 [Lapatinib] (partner 2 µM)
How it was run: as §1

AGI-6780 + Olaparib = compound: O=C(Nc1cccc(C(F)(F)F)c1)Nc1cc(S(=O)(=O)NC2CC2)ccc1-c1ccsc1 [AGI-6780] + O=C(c1cc(Cc2n[nH]c(=O)c3ccccc23)ccc1F)N1CCN(C(=O)C2CC2)CC1 [Olaparib] (partner 8 µM)
How it was run: as §1

AGI-6780 + Navitoclax = compound: O=C(Nc1cccc(C(F)(F)F)c1)Nc1cc(S(=O)(=O)NC2CC2)ccc1-c1ccsc1 [AGI-6780] + CC1(C)CCC(c2ccc(Cl)cc2)=C(CN2CCN(c3ccc(C(=O)NS(=O)(=O)c4ccc(N[C@H](CCN5CCOCC5)CSc5ccccc5)c(S(=O)(=O)C(F)(F)F)c4)cc3)CC2)C1 [Navitoclax] (partner 0.5 µM)
How it was run: as §1

AGI-6780 + Foretinib = compound: O=C(Nc1cccc(C(F)(F)F)c1)Nc1cc(S(=O)(=O)NC2CC2)ccc1-c1ccsc1 [AGI-6780] + COc1cc2c(Oc3ccc(NC(=O)C4(C(=O)Nc5ccc(F)cc5)CC4)cc3F)ccnc2cc1OCCCN1CCOCC1 [Foretinib] (partner 0.25 µM)
How it was run: as §1

AGI-6780 + Linsitinib = compound: O=C(Nc1cccc(C(F)(F)F)c1)Nc1cc(S(=O)(=O)NC2CC2)ccc1-c1ccsc1 [AGI-6780] + C[C@]1(O)C[C@@H](c2nc(-c3ccc4ccc(-c5ccccc5)nc4c3)c3c(N)nccn32)C1 [Linsitinib] (partner 1 µM)
How it was run: as §1

AGI-6780 = compound: O=C(Nc1cccc(C(F)(F)F)c1)Nc1cc(S(=O)(=O)NC2CC2)ccc1-c1ccsc1 [AGI-6780]
How it was run: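 On vehicle-anchored 1536-well plates, lung cancer cell lines held overnight at 37 °C were pinned with five library-drug doses (not always all listed) spaced by √10. With no medium change over 5 days, they were then fixed, permeabilised and Hoechst-stained in one step and imaged at 4×. MetaXpress counted nuclei, and viability is the median across plates of treated-well over vehicle-well nuclei. Acceptance needed control CV below 25% and at least one doubling.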

AGI-6780 + Luminespib = compound: O=C(Nc1cccc(C(F)(F)F)c1)Nc1cc(S(=O)(=O)NC2CC2)ccc1-c1ccsc1 [AGI-6780] + CCNC(=O)c1noc(-c2cc(C(C)C)c(O)cc2O)c1-c1ccc(CN2CCOCC2)cc1 [Luminespib] (partner 0.01 µM)
How it was run: as §1

AGI-6780 + Dasatinib = compound: O=C(Nc1cccc(C(F)(F)F)c1)Nc1cc(S(=O)(=O)NC2CC2)ccc1-c1ccsc1 [AGI-6780] + Cc1nc(Nc2ncc(C(=O)Nc3c(C)cccc3Cl)s2)cc(N2CCN(CCO)CC2)n1 [Dasatinib] (partner 0.075 µM)
How it was run: as §1

AGI-6780 + OSI-027 = compound: O=C(Nc1cccc(C(F)(F)F)c1)Nc1cc(S(=O)(=O)NC2CC2)ccc1-c1ccsc1 [AGI-6780] + COc1cccc2cc(-c3nc([C@H]4CC[C@H](C(=O)O)CC4)n4ncnc(N)c34)[nH]c12 [OSI-027] (partner 0.5 µM)
How it was run: as §1

AGI-6780 + Tozasertib = compound: O=C(Nc1cccc(C(F)(F)F)c1)Nc1cc(S(=O)(=O)NC2CC2)ccc1-c1ccsc1 [AGI-6780] + Cc1cc(Nc2cc(N3CCN(C)CC3)nc(Sc3ccc(NC(=O)C4CC4)cc3)n2)n[nH]1 [Tozasertib] (partner 0.1 µM)
How it was run: as §1

A549 was tested, and the relative viability (AGI-6780 + Pictilisib; first compound 0.08 µM) was 0.583, the relative viability (AGI-6780 + Pictilisib; first compound 0.253 µM) was 0.463 and the relative viability (AGI-6780 + Pictilisib; first compound 0.8 µM) was 0.604. The relative viability (AGI-6780 + Pictilisib; first compound 2.53 µM) was 0.459, the relative viability (AGI-6780 + Pictilisib; first compound 8 µM) was 0.463 and the relative viability (AGI-6780 + Decitabine; first compound 0.08 µM) was 0.329. It also gave a relative viability (AGI-6780 + Decitabine; first compound 0.253 µM) of 0.211, a relative viability (AGI-6780 + Decitabine; first compound 0.8 µM) of 0.275 and a relative viability (AGI-6780 + Decitabine; first compound 2.53 µM) of 0.292. It also gave a relative viability (AGI-6780 + Decitabine; first compound 8 µM) of 0.322, a relative viability (AGI-6780 + Crizotinib; first compound 0.08 µM) of 0.763 and a relative viability (AGI-6780 + Crizotinib; first compound 0.253 µM) of 0.765. For the same cell line, the relative viability (AGI-6780 + Crizotinib; first compound 0.8 µM) was 0.855, the relative viability (AGI-6780 + Crizotinib; first compound 2.53 µM) was 0.625 and the relative viability (AGI-6780 + Crizotinib; first compound 8 µM) was 0.836. It also gave a relative viability (AGI-6780 + Alpelisib; first compound 0.08 µM) of 0.797, a relative viability (AGI-6780 + Alpelisib; first compound 0.253 µM) of 0.662 and a relative viability (AGI-6780 + Alpelisib; first compound 0.8 µM) of 0.76. The relative viability (AGI-6780 + Alpelisib; first compound 2.53 µM) was 0.593, the relative viability (AGI-6780 + Alpelisib; first compound 8 µM) was 0.747 and the relative viability (AGI-6780 + Phenformin; first compound 0.08 µM) was 0.153. For the same cell line, the relative viability (AGI-6780 + Phenformin; first compound 0.253 µM) was 0.177, the relative viability (AGI-6780 + Phenformin; first compound 0.8 µM) was 0.25 and the relative viability (AGI-6780 + Phenformin; first compound 2.53 µM) was 0.133. It also gave a relative viability (AGI-6780 + Phenformin; first compound 8 µM) of 0.175, a relative viability (AGI-6780 + Lapatinib; first compound 0.08 µM) of 0.999 and a relative viability (AGI-6780 + Lapatinib; first compound 0.253 µM) of 0.968. The relative viability (AGI-6780 + Lapatinib; first compound 0.8 µM) was 1.14, the relative viability (AGI-6780 + Lapatinib; first compound 2.53 µM) was 0.927 and the relative viability (AGI-6780 + Lapatinib; first compound 8 µM) was 1.06. For the same cell line, the relative viability (AGI-6780 + Olaparib; first compound 0.08 µM) was 0.32, the relative viability (AGI-6780 + Olaparib; first compound 0.253 µM) was 0.298 and the relative viability (AGI-6780 + Olaparib; first compound 0.8 µM) was 0.337. It also gave a relative viability (AGI-6780 + Olaparib; first compound 2.53 µM) of 0.302, a relative viability (AGI-6780 + Olaparib; first compound 8 µM) of 0.377 and a relative viability (AGI-6780 + Navitoclax; first compound 0.08 µM) of 1.31. For the same cell line, the relative viability (AGI-6780 + Navitoclax; first compound 0.253 µM) was 1.27, the relative viability (AGI-6780 + Navitoclax; first compound 0.8 µM) was 1.37 and the relative viability (AGI-6780 + Navitoclax; first compound 2.53 µM) was 1.13. It also gave a relative viability (AGI-6780 + Navitoclax; first compound 8 µM) of 1.23, a relative viability (AGI-6780 + Foretinib; first compound 0.08 µM) of 1.04 and a relative viability (AGI-6780 + Foretinib; first compound 0.253 µM) of 0.956. It also gave a relative viability (AGI-6780 + Foretinib; first compound 0.8 µM) of 0.88, a relative viability (AGI-6780 + Foretinib; first compound 2.53 µM) of 0.729 and a relative viability (AGI-6780 + Foretinib; first compound 8 µM) of 1.07. It also gave a relative viability (AGI-6780 + Linsitinib; first compound 0.08 µM) of 0.585, a relative viability (AGI-6780 + Linsitinib; first compound 0.253 µM) of 0.594 and a relative viability (AGI-6780 + Linsitinib; first compound 0.8 µM) of 0.701. For the same cell line, the relative viability (AGI-6780 + Linsitinib; first compound 2.53 µM) was 0.452, the relative viability (AGI-6780 + Linsitinib; first compound 8 µM) was 0.545 and the relative viability (AGI-6780; 0.08 µM) was 0.992. For the same cell line, the relative viability (AGI-6780; 0.253 µM) was 0.992, the relative viability (AGI-6780; 0.8 µM) was 1.08 and the relative viability (AGI-6780; 2.53 µM) was 0.745. For the same cell line, the relative viability (AGI-6780; 8 µM) was 0.992.

NCI-H1623 was tested, and the relative viability (AGI-6780 + Luminespib; first compound 0.08 µM) was 0.489, the relative viability (AGI-6780 + Luminespib; first compound 0.253 µM) was 0.483 and the relative viability (AGI-6780 + Luminespib; first compound 0.8 µM) was 0.575. The relative viability (AGI-6780 + Luminespib; first compound 2.53 µM) was 0.381, the relative viability (AGI-6780 + Luminespib; first compound 8 µM) was 0.463 and the relative viability (AGI-6780 + Dasatinib; first compound 0.08 µM) was 0.484. For the same cell line, the relative viability (AGI-6780 + Dasatinib; first compound 0.253 µM) was 0.553, the relative viability (AGI-6780 + Dasatinib; first compound 0.8 µM) was 0.619 and the relative viability (AGI-6780 + Dasatinib; first compound 2.53 µM) was 0.477. The relative viability (AGI-6780 + Dasatinib; first compound 8 µM) was 0.489, the relative viability (AGI-6780 + Phenformin; first compound 0.08 µM) was 0.561 and the relative viability (AGI-6780 + Phenformin; first compound 0.253 µM) was 0.604. For the same cell line, the relative viability (AGI-6780 + Phenformin; first compound 0.8 µM) was 0.609, the relative viability (AGI-6780 + Phenformin; first compound 2.53 µM) was 0.508 and the relative viability (AGI-6780 + Phenformin; first compound 8 µM) was 0.518. For the same cell line, the relative viability (AGI-6780 + OSI-027; first compound 0.08 µM) was 0.537, the relative viability (AGI-6780 + OSI-027; first compound 0.253 µM) was 0.453 and the relative viability (AGI-6780 + OSI-027; first compound 0.8 µM) was 0.454. The relative viability (AGI-6780 + OSI-027; first compound 2.53 µM) was 0.374, the relative viability (AGI-6780 + OSI-027; first compound 8 µM) was 0.396 and the relative viability (AGI-6780 + Foretinib; first compound 0.08 µM) was 0.789. It also gave a relative viability (AGI-6780 + Foretinib; first compound 0.253 µM) of 0.856, a relative viability (AGI-6780 + Foretinib; first compound 0.8 µM) of 0.976 and a relative viability (AGI-6780 + Foretinib; first compound 2.53 µM) of 0.721. It also gave a relative viability (AGI-6780 + Foretinib; first compound 8 µM) of 0.887, a relative viability (AGI-6780 + Tozasertib; first compound 0.08 µM) of 0.47 and a relative viability (AGI-6780 + Tozasertib; first compound 0.253 µM) of 0.519. For the same cell line, the relative viability (AGI-6780 + Tozasertib; first compound 0.8 µM) was 0.474, the relative viability (AGI-6780 + Tozasertib; first compound 2.53 µM) was 0.391 and the relative viability (AGI-6780 + Tozasertib; first compound 8 µM) was 0.409. The relative viability (AGI-6780; 0.08 µM) was 0.967, the relative viability (AGI-6780; 0.253 µM) was 0.953 and the relative viability (AGI-6780; 0.8 µM) was 0.977. The relative viability (AGI-6780; 2.53 µM) was 0.681 and the relative viability (AGI-6780; 8 µM) was 0.949.
